From patent publication US10271552B2, “Heterocyclic compounds as pesticides” (Bayer CropScience Aktiengesellschaft, priority 2015, dated 2019)

How the values were obtained:
Format in all cases: in vivo
Boophilus microplus = Boophilus microplus injection test; conditions: 20 μg/animal injected; adult engorged female ticks; after 7 days
Description: Boophilus microplus—Injection Test
(§1) Solvent: dimethyl sulfoxide
To produce a suitable preparation of active compound, 10 mg of active compound are dissolved in 0.5 ml solvent, and the concentrate is diluted with solvent to the desired concentration.
Five adult engorged female ticks (Boophilus microplus) are injected with 1 μl compound solution into the abdomen. The ticks are transferred into replica plates and incubated in a climate chamber.
After 7 days egg deposition of fertile eggs is monitored. Eggs where fertility is not visible are stored in a climate chamber till hatching after about 42 days. An efficacy of 100% means all eggs are infertile; 0% means all eggs are fertile.

Musca domestica = Musca domestica test; conditions: 100 ppm; adult house flies; after 2 days
Description: as §1
To produce a suitable preparation of active compound, 10 mg of active compound are dissolved in 0.5 ml solvent, and the concentrate is diluted with water to the desired concentration.
10 adult house flies (Musca domestica) are transferred into a container, containing a sponge soaked with a mixture of sugar solution and compound solution of the desired concentration.
After 2 days mortality in % is determined. 100% means all the flies have been killed; 0% means none of the flies have been killed.

Diabrotica balteata = Diabrotica balteata spray test; conditions: 160 μg/well; germinated wheat seeds, larvae; after 7 days
Description: Diabrotica Balteata—Spray Test
Solvent: 78.0 parts by weight of acetone • • 1.5 parts by weight of dimethylformamide
Emulsifier: alkylarylpolyglycol ether
To produce a suitable preparation of active compound, 1 part by weight of active compound is mixed with the stated amount of solvent, and the concentrate is diluted with water, containing an emulsifier concentration of 1000 ppm, to the desired concentration. Further test concentrations are prepared by dilution with emulsifier containing water.
Soaked wheat seeds (Triticum aestivum) are placed in a multiple well plate filled with agar and some water and are incubated for 1 day to germinate (5 seeds per well). The germinated wheat seeds are sprayed with a test solution containing the desired concentration of the active ingredient. Afterwards each unit is infected with 10-20 larvae of the banded cucumber beetle (Diabrotica balteata).
After 7 days efficacy in % is determined. 100% means all the seedlings have grown up like in the untreated, uninfected control; 0% means none of the seedlings have grown.

Meloidogyne incognita = Meloidogyne incognita test; conditions: 20 ppm; eggs and larvae, salad seeds in sand; after 14 days
Description: Meloidogyne incognita—Test
Solvent: 125.0 parts by weight of acetone
To produce a suitable preparation of active compound, 1 part by weight of active compound is mixed with the stated amount of solvent, and the concentrate is diluted with water to the desired concentration.
Vessels are filled with sand, a solution of the active ingredient, a suspension containing eggs and larvae of the southern root-knot nematode (Meloidogyne incognita) and salad seeds. The salad seeds germinate and the seedlings grow. Galls develop in the roots.
After 14 days the nematicidal activity is determined on the basis of the percentage of gall formation. 100% means no galls were found and 0% means the number of galls found on the roots of the treated plants was equal to that in untreated control plants.

Plutella xylostella = Plutella xylostella spray test; conditions: 100 ppm; cabbage leaves, larvae; after 7 days
Description: Plutella xylostella—Spray Test
Solvent: 14 parts by weight of dimethylformamide
Emulsifier: alkylaryl polyglycol ether
To produce a suitable preparation of active compound, 1 part by weight of active compound is mixed with the stated amount of solvent and is diluted with water, containing an emulsifier concentration of 1000 ppm, to the desired concentration. Further test concentrations are prepared by dilution with emulsifier containing water.
Cabbage leaves (Brassica oleracea) are treated by being sprayed with the preparation of the active compound of the desired concentration and are infested with larvae of the diamondback moth (Plutella xylostella).
After 7 days, mortality in % is determined. 100% means all the caterpillars have been killed and 0% means none of the caterpillars have been killed.

O=C(Nc1nc(-c2ccccc2F)ns1)c1cccnc1C(F)(F)F [Compound I-1-57]
100%: efficacy (infertile eggs) (Boophilus microplus) | mortality (Musca domestica) | efficacy (seedling growth) (Diabrotica balteata)

O=C(Nc1nc(-c2c(F)cccc2F)ns1)c1c(F)cccc1C(F)(F)F [Compound I-1-12]
100%: efficacy (infertile eggs) (Boophilus microplus) | nematicidal activity (gall formation) (Meloidogyne incognita) | mortality (Plutella xylostella)
